# Test results published in patent US8389792B2, “Compositions and methods for the treatment and prevention of ulcerative colitis and colon cancer and screening methods to identify same” (Cornell University, priority 2007, dated 2013).
# “Also recorded” adds a separate entry of the source.
# What was measured:
# Proteus mirabilis [1] = experiment: Quantitative fecal culture of Gram-negative aerobes on MacConkey's medium; assay type: in vivo; settings: for fecal levels of P. mirabilis after antibiotic: 4-week old TRUC mice, feces cultured 1d before and 1d after antibiotic, limit of detection 4.4 log10 CFU/g
# Description: (§1) Individual mice were placed in autoclaved plastic cages. Fecal pellets were transferred immediately upon expulsion into capped microfuge tubes. 4-6 pellets were collected per mouse per time point. All Rag2^−/− mice in FIG. 2F were sampled twice over a 3d period for each weekly time point. Pellets were resuspended in sterile PBS and 10-fold serial dilutions were generated, plated on MacConkey's medium, and incubated in ambient air at 37° C. overnight. Biochemical assays with the API-20E panel (bioMerieux) confirmed that colony morphology correlated with Klebsiella pneumoniae, Proteus mirabilis, or E. coli: therefore, these organisms were subsequently identified based on their colony morphotypes.
# (§2) The lower limit of detection for these studies was 10^4.4 cfu/gram fecal dry weight. A minimum of 30 colonies or a maximum of 300 colonies was counted at a given dilution and the serial dilution had to appropriately reflect the colony counts for the quantitative counts to pass our quality control standards.
# (§3) Mice were treated with the following antibiotics dissolved in their autoclaved drinking water as indicated: ampicillin (1 g/L; Roche), vancomycin (500 mg/L; Sigma), neomycin sulfate (1 g/L; Sigma), metronidazole (1 g/L; Sigma, solubilized with 15 ml of 0.1N acetic acid/L), and gentamicin (2 g/L; Cell Gro); and fluid intake monitored.
# (§4) Dextran sulfate sodium (M.W. 40-50,000; USB Cat# 14489) was dissolved in drinking water at a final concentration of 4% (w/v) and provided for 7d.
# (§5) anti-TNF-α (clone TN3-19.12), a hamster anti-mouse TNF-α neutralizing IgGl antibody and control Ab (hamster anti-GST IgGl) were purchased from Leinco Technologies. Mice were injected with these reagents (15 mg/kg) on a weekly basis for four weeks (Garrett et al., 2007).
# (§6) Peripheral lymph nodes were harvested and cell suspensions were generated as previously described. Fluorescence activated cell sorted C114^+CD62L^h,CD25^+ cells were collected and resuspended in PBS. 75,000 cells were injected per mouse. An equivalent amount of PBS was injected in the control group. 10 mice were injected with T-regulatory cells and nine mice with PBS. All mice were 4 weeks of age at the time of injection (Garrett et al., 2007). This experiment was stopped when the mice were 12 weeks old (as opposed to 14 weeks of age in the TNF-a blockade experiment), because two mice in the control group became quite moribund from their colitis, and euthanasia was indicated as per our animal protocol.
# Klebsiella pneumoniae [2] = experiment: as above; assay type: in vivo; settings: for fecal levels of K. pneumoniae after antibiotic: 4-week old TRUC mice, feces cultured 1d before and 1d after antibiotic, limit of detection 4.4 log10 CFU/g
# Description: as §1, §2, §3, §4, §5, §6
# [3] = tested on: T-bet−/−×RAG2−/− (TRUC) mice; experiment: Histologic colitis scoring of colons from treated TRUC mice; assay type: in vivo, mouse; settings: for TRUC colitis (histologic colitis scores, in vivo antibiotic sensitivity): TRUC mice treated four weeks with single antibiotic in drinking water
# From the text: For studies of the progeny of antibiotic treated animals, progeny were weaned at 21 days and examined six weeks after weaning. These animals had no exposure to antibiotics after weaning.
# Colons were removed from euthanized mice and dissected free from the anus to distal to the cecum. Colonic contents were removed and colons were cleaned with phosphate buffer saline or Hanks' balanced salt solution prior to fixation in 4% PFA or 10% neutral buffered formalin (NBF) followed by routine paraffin embedding. After paraffin embedding, […] sections were cut and stained with hematoxylin and eosin or as noted.
# Sections were examined and the degree of colitis was blindly scored. Each of four histologic parameters were scored as absent (0), mild (1), moderate (2), or severe (3): mononuclear cell infiltraton, polymorphonuclear cell infiltration, epithelial hyperplasia, and epithelial injury, similar to previous studies (Neurath et al., 2002b). Colons from dextran sodium sulfate treated mice were scored using the following parameters scored on a scale of 0-4: percentage of colon involved by inflammation, percentage of crypt loss, presence of lymphoid follicles, edema, erosions, and density of inflammatory cells. The scores for the individual parameters were summed to give a total severity score. […]
# Mice were treated as described previously (Fagarasan, S., et al. (2002). Science 298, 1424-1427; Rakoff-Nahoum, S., et al. (2004). Cell 118, 229-241). Alterations are as noted: in brief, animals were provided ampicillin (1 g/L; Roche), vancomycin (1 gm/L; Henry Schein, Inc. (Hospira, Inc.)), neomycin sulfate (1 g/L; Sigma (Teva Pharmaceuticals)), and metronidazole (1 g/L; Sigma) dissolved in their autoclaved drinking water and their fluid intake was monitored. […]
# as §3, with “monitored. […]” for “monitored.”
# Proteus mirabilis [4] = experiment: TNF-α bacterial co-culture (growth kinetics); assay type: cell-based; settings: in vitro mono-culture, 6 h, colony counts at 2 h intervals
# Description: (§7) TNF-a (final concentration 100u,g/mL culture medium), or PBS alone, was added to cultures of the designated microbes and bacterial concentrations (efu/ml) were followed during a 6 h incubation (37° C. with agitation in ambient air) at 2 h intervals. Bacteria were cultured in Luria Broth and plated on MacConkey's medium.
# Klebsiella pneumoniae [5] = experiment: TNF-α bacterial co-culture (growth kinetics); assay type: cell-based; settings: in vitro mono-culture, 6 h, colony counts at 2 h intervals
# Description: as §7
# [6] = 8 week-old WT and Rag2−/− mice, 4% in drinking water one week, samples before and 1d after
Compound,fecal levels of P. mirabilis after antibiotic (Proteus mirabilis [1]),fecal levels of K. pneumoniae after antibiotic (Klebsiella pneumoniae [2]),"TRUC colitis (histologic colitis scores, in vivo antibiotic sensitivity) [3]",further results
Cc1ncc([N+](=O)[O-])n1CCO [metronidazole],below our limit of detection,below our limit of detection,,"TRUC colitis (histologic scores) ([3]; six week old TRUC mice, antibiotics 1 g/L each in drinking water for six weeks): cured the colitis"
Dextran sulfate sodium,,,,culturable P. mirabilis in fecal microbiota after dextran sulfate sodium (Proteus mirabilis [1]; [6]): did not detect; culturable K. pneumoniae in fecal microbiota after dextran sulfate sodium (Klebsiella pneumoniae [2]; [6]): did not detect
TNF-a,,,,growth kinetics of P. mirabilis in vitro (Proteus mirabilis [4]): did not affect the growth kinetics; growth kinetics of K. pneumoniae in vitro (Klebsiella pneumoniae [5]): did not affect the growth kinetics
gentamicin,below our limit of detection,below our limit of detection,able to ameliorate and cure TRUC,
CN[C@H](CC(C)C)C(=O)N[C@H]1C(=O)N[C@@H](CC(N)=O)C(=O)N[C@H]2C(=O)N[C@H]3C(=O)N[C@H](C(=O)N[C@H](C(=O)O)c4cc(O)cc(O)c4-c4cc3ccc4O)[C@H](O)c3ccc(c(Cl)c3)Oc3cc2cc(c3O[C@@H]2O[C@H](CO)[C@@H](O)[C@H](O)[C@H]2O[C@H]2C[C@](C)(N)[C@H](O)[C@H](C)O2)Oc2ccc(cc2Cl)[C@H]1O [vancomycin],,,does not; also recorded: neither abolished colitis,
